Measured values taken from US11059780B2, “Substituted pyrrolidine compound and use thereof” (Takeda Pharmaceutical Company Limited, priority 2017, dated 2021).

Molecular target: T1, human orexin type 2 receptor (hOX2R) (Homo sapiens, UniProt O43614)
T1 construct: expressed in transfected cells
T1 sequence (O43614 1-444): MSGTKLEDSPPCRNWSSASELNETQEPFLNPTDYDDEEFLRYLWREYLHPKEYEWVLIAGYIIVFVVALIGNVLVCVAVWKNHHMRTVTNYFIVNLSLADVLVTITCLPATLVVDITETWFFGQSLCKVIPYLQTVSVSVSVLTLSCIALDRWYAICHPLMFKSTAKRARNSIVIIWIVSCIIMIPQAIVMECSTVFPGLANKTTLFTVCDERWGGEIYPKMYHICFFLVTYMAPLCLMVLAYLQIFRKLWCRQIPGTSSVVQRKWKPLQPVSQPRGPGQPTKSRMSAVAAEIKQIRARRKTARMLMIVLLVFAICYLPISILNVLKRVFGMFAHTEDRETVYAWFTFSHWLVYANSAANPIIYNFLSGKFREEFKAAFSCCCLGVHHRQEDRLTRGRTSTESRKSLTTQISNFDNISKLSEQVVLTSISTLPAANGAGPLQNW
Experiment: Measurement of orexin type 2 receptor agonist activity (Fluo-4 calcium fluorescence, CHO cells forcibly expressing human OX2 receptor)
Type: cell-based
Settings: test compound 3 μM, DMSO = 0%, orexin A (human) 10 nM = 100%
In short: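 CHO-dhfr cells stably expressing human OX2 receptor, loaded with Fluo-4 AM in HBSS/HEPES/BSA with probenecid, then given test compound at 3 μM. Calcium fluorescence recorded for about 2 min 40 s by FDSS; activity normalized to DMSO (0%) and 10 nM human orexin A (100%).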

SMILES | OX2R agonist activity (3 μM, %) [%]
CO[C@@H]1CN(C(=O)c2cc(C)ccc2C)C[C@H]1Oc1cccc(NS(=O)(=O)N2CCC(C)C2)c1 (relative stereo) [Example 68, trans-N-(3-((1-(2,5-dimethylbenzoyl)-4-methoxypyrrolidin-3-yl)oxy)phenyl)-3-methylpyrrolidine-1-sulfonamide] | 84
COc1nccc(C)c1C(=O)N1C[C@@H](OC)[C@H](Oc2cccc(CS(=O)(=O)N(C)C3CCOCC3)c2)C1 (relative stereo) [Example 161, trans-1-(3-((4-methoxy-1-((2-methoxy-4-methylpyridin-3-yl)carbonyl)pyrrolidin-3-yl)oxy)phenyl)-N-methyl-N-(tetrahydro-2H-pyran-4-yl)methanesulfonamide] | 102
COc1ccccc1C1CCCN1S(=O)(=O)Nc1cccc(O[C@@H]2CN(C(=O)c3cc(C)ccc3C)C[C@H]2OC)c1 (relative stereo) [Example 66, trans-N-(3-((1-(2,5-dimethylbenzoyl)-4-methoxypyrrolidin-3-yl)oxy)phenyl)-2-(2-methoxyphenyl)pyrrolidine-1-sulfonamide] | 72
COc1ccccc1OC(=O)N1C[C@@H](OC)[C@H](Oc2cccc(NS(=O)(=O)N3CC4CC4C3)c2)C1 (stereo partly drawn) [Example 157, 2-methoxyphenyl(3R,4R)-3-(3-((3-azabicyclo[3.1.0]hex-3-ylsulfonyl)amino)phenoxy)-4-methoxypyrrolidine-1-carboxylate] | 83
CO[C@@H]1CN(C(=O)c2c(C)cccc2C2CC2)C[C@H]1Oc1cccc(OS(=O)(=O)N2CCOCC2)c1 (relative stereo) [Example 166, trans-3-((1-(2-cyclopropyl-6-methylbenzoyl)-4-methoxypyrrolidin-3-yl)oxy)phenyl morpholine-4-sulfonate] | 41
CO[C@@H]1CN(C(=O)c2cc(C)ccc2C)C[C@H]1Oc1cccc(NS(=O)(=O)N2CCC3(CC3)C2)c1 (relative stereo) [Example 69, trans-N-(3-((1-(2,5-dimethylbenzoyl)-4-methoxypyrrolidin-3-yl)oxy)phenyl)-5-azaspiro[2.4]heptane-5-sulfonamide] | 82
CO[C@@H]1CN(C(=O)C(F)(F)c2ccccc2)C[C@H]1Oc1cccc(CS(=O)(=O)N(C)C2CCOCC2)c1 (relative stereo) [Example 145, trans-1-(3-((1-(difluoro(phenyl)acetyl)-4-methoxypyrrolidin-3-yl)oxy)phenyl)-N-methyl-N-(tetrahydro-2H-pyran-4-yl)methanesulfonamide] | 45
COC1CN(C(=O)c2cc(C)ccc2C)CC1Oc1cccc(NS(=O)(=O)N2C[C@H]3C[C@H]2C3)c1 (relative stereo) [Example 64, trans-N-(3-((1-(2,5-dimethylbenzoyl)-4-methoxypyrrolidin-3-yl)oxy)phenyl)-2-azabicyclo[2.1.1]hexane-2-sulfonamide] | 75
CO[C@@H]1CN(C(=O)Oc2c(C)cccc2C)C[C@H]1Oc1cccc(NS(=O)(=O)N2CC3CC3C2)c1 (stereo partly drawn) [Example 148, 2,6-dimethylphenyl(3R,4R)-3-(3-((3-azabicyclo[3.1.0]hex-3-ylsulfonyl)amino)phenoxy)-4-methoxypyrrolidine-1-carboxylate] | 76
CO[C@@H]1CN(C(=O)c2c(C)cccc2C)C[C@H]1Oc1cccc(NS(=O)(=O)N2CC3CC3C2)c1 (stereo partly drawn) [Example 120, N-(3-(((3R,4R)-1-(2,6-dimethylbenzoyl)-4-methoxypyrrolidin-3-yl)oxy)phenyl)-3-azabicyclo[3.1.0]hexane-3-sulfonamide] | 107
CO[C@@H]1CN(C(=O)c2cc(C)ccc2C)C[C@H]1Oc1cccc(C(C)S(=O)(=O)N(C)C2CCOCC2)c1 (relative stereo) [Example 143, trans-1-(3-((1-(2,5-dimethylbenzoyl)-4-methoxypyrrolidin-3-yl)oxy)phenyl)-N-methyl-N-(tetrahydro-2H-pyran-4-yl)ethanesulfonamide] | 92
CO[C@@H]1CN(C(=O)C2(c3ccccc3)CCC2)C[C@H]1Oc1cccc(CS(=O)(=O)N(C)C2CCOCC2)c1 (relative stereo) [Example 147, trans-1-(3-((4-methoxy-1-((1-phenylcyclobutyl)carbonyl)pyrrolidin-3-yl)oxy)phenyl)-N-methyl-N-(tetrahydro-2H-pyran-4-yl)methanesulfonamide] | 37
CCc1ccc(C)c(C(=O)N2C[C@@H](OC)[C@H](Oc3cccc(CS(=O)(=O)N(C)C4CCOCC4)c3)C2)c1OC (relative stereo) [Example 164, trans-1-(3-((1-(3-ethyl-2-methoxy-6-methylbenzoyl)-4-methoxypyrrolidin-3-yl)oxy)phenyl)-N-methyl-N-(tetrahydro-2H-pyran-4-yl)methanesulfonamide] | 86
CCc1cccc(C)c1C(=O)N1C[C@@H](OC)[C@H](Oc2cccc(C(F)S(=O)(=O)N(C)C3CCOCC3)c2)C1 (relative stereo) [Example 154, trans-1-(3-((1-(2-ethyl-6-methylbenzoyl)-4-methoxypyrrolidin-3-yl)oxy)phenyl)-1-fluoro-N-methyl-N-(tetrahydro-2H-pyran-4-yl)methanesulfonamide] | 99
CO[C@@H]1CN(C(=O)c2cc(C)ccc2C)C[C@H]1Oc1cccc(CS(=O)(=O)N2CCCC2c2ccccn2)c1 (relative stereo) [Example 15, trans-(2,5-dimethylphenyl)(3-methoxy-4-(3-(((2-(pyridin-2-yl)pyrrolidin-1-yl)sulfonyl)methyl)phenoxy)pyrrolidin-1-yl)methanone] | 80
CO[C@@H]1CN(C(=O)c2cc(C)ccc2C)C[C@H]1Oc1cccc(NS(=O)(=O)N2CCCC2)c1 (relative stereo) [Example 22, trans-N-(3-((1-(2,5-dimethylbenzoyl)-4-methoxypyrrolidin-3-yl)oxy)phenyl)pyrrolidine-1-sulfonamide] | 65

The next lines start with the values.

OX2R agonist activity (3 μM, %) [%] | SMILES
77 | CO[C@@H]1CN(C(=O)c2cc(C)ccc2C)C[C@H]1Oc1cccc(NS(=O)(=O)N2CCC23COC3)c1 (relative stereo) [Example 63, trans-N-(3-((1-(2,5-dimethylbenzoyl)-4-methoxypyrrolidin-3-yl)oxy)phenyl)-6-oxa-1-azaspiro[3.3]heptane-1-sulfonamide]
87 | COCC1CCCN1S(=O)(=O)Nc1cccc(O[C@@H]2CN(C(=O)c3cc(C)ccc3C)C[C@H]2OC)c1 (relative stereo) [Example 50, trans-N-(3-((1-(2,5-dimethylbenzoyl)-4-methoxypyrrolidin-3-yl)oxy)phenyl)-2-(methoxymethyl)pyrrolidine-1-sulfonamide]
114 | COc1cccc(C)c1C(=O)N1C[C@@H](OC)[C@H](Oc2cccc(NS(=O)(=O)N3CC4CC4C3)c2)C1 (stereo partly drawn) [Example 121, N-(3-(((3R,4R)-4-methoxy-1-(2-methoxy-6-methylbenzoyl)pyrrolidin-3-yl)oxy)phenyl)-3-azabicyclo[3.1.0]hexane-3-sulfonamide]
60 | COC(=O)C1COCCN1S(=O)(=O)Cc1cccc(O[C@@H]2CN(C(=O)c3cc(C)ccc3C)C[C@H]2OC)c1 (relative stereo) [Example 12, methyl trans-4-((3-((1-(2,5-dimethylbenzoyl)-4-methoxypyrrolidin-3-yl)oxy)benzyl)sulfonyl)morpholine-3-carboxylate]
74 | COc1ccc(Cl)cc1C(=O)N1C[C@@H](OC)[C@H](Oc2cccc(CS(=O)(=O)N3CCCC3c3ccccn3)c2)C1 (relative stereo) [Example 108, trans-(5-chloro-2-methoxyphenyl)(3-methoxy-4-(3-(((2-(pyridin-2-yl)pyrrolidin-1-yl)sulfonyl)methyl)phenoxy)pyrrolidin-1-yl)methanone]
82 | CO[C@@H]1CN(C(=O)c2cc(C)ccc2C)C[C@H]1Oc1cccc(NS(=O)(=O)N2CCCC2Cc2cccnc2)c1 (relative stereo) [Example 67, trans-N-(3-((1-(2,5-dimethylbenzoyl)-4-methoxypyrrolidin-3-yl)oxy)phenyl)-2-(pyridin-3-ylmethyl)pyrrolidine-1-sulfonamide]
115 | COC1CN(C(=O)c2cc(C)ccc2C)CC1Oc1cccc(CS(=O)(=O)N(C)[C@@H]2CCOC[C@H]2F)c1 (relative stereo) [Example 142, trans-1-(3-((1-(2,5-dimethylbenzoyl)-4-methoxypyrrolidin-3-yl)oxy)phenyl)-N-(3-fluorotetrahydro-2H-pyran-4-yl)-N-methylmethanesulfonamide]
43 | CCc1cccc(C)c1C(=O)N1C[C@@H](OC)[C@H](Oc2cccc(C(F)(F)S(=O)(=O)N(C)C3CCOCC3)c2)C1 (relative stereo) [Example 150, trans-1-(3-((1-(2-ethyl-6-methylbenzoyl)-4-methoxypyrrolidin-3-yl)oxy)phenyl)-1,1-difluoro-N-methyl-N-(tetrahydro-2H-pyran-4-yl)methanesulfonamide]
